Assay results taken from patent US9237747B2, “Herbicidal compositions comprising 4-amino-3-chloro-5-fluoro-6-(4-chloro-2-fluoro-3-methoxyphenyl) pyridine-2-carboxylic acid or a derivative thereof and insecticides” (priority 2013, dated 2016).
Read-outs that look alike come from different tables or passages of the source.

Legend:
LEFCH = assay: whole plant or invertebrate; format: in vivo, Leptochloa chinensis
Procedure: (§1) Seeds or nutlets of the desired test plant species were planted in a soil matrix prepared by mixing a loam or sandy loam soil (e.g., 28.6 percent silt, 18.8 percent clay, and 52.6 percent sand, with a pH of about 5.8 and an organic matter content of about 1.8 percent) and calcareous grit in an 80 to 20 ratio. The soil matrix was contained in plastic pots with a volume of 1 quart and a surface area of 83.6 square centimeters (cm^2). […] The plants were grown for 8-22 days in a greenhouse with an approximate 14 hour (h) photoperiod which was maintained at about 29° C. during the day and 26° C. during the night. Nutrients (Peters Excel® 15-5-15 5-Ca 2-Mg and iron chelate) were applied in the irrigation solution as needed and water was added on a regular basis. Supplemental lighting was provided with overhead metal halide 1000-Watt lamps as necessary. The plants were employed for testing when they reached the first through fourth true leaf stage.
(§2) Treatments consisted of the acid or esters of 4-amino-3-chloro-6-(4-chloro-2-fluoro-3-methoxyphenyl)-5-fluoropyridine-2-carboxylic acid (Compound A), each formulated as an SC (suspension concentrate), and various insecticidal components alone and in combination. Forms of compound A were applied on an acid equivalent basis.
(§3) For treatments comprised of formulated compounds, measured amounts of compounds were placed individually in 25 mL glass vials and diluted in a volume of 1.25% volume per volume (v/v) Agri-Dex® crop oil concentrate to obtain 12× stock solutions. […] Application solutions were prepared by adding an appropriate amount of each stock solution (e.g., 1 mL) and diluted to the appropriate final concentrations with the addition of […] of an aqueous mixture of 1.25% (v/v) crop oil concentrate so that the final spray solutions contained 1.25+/−0.05% (v/v) crop oil concentrate.
(§4) As required, additional water and/or 97:3 v/v acetone/DMSO was added to individual application solutions so that the final acetone and DMSO concentrations of the application solutions being compared were 8.1% and 0.25%, respectively.
(§5) All stock solutions and applications solutions were visually inspected for compound compatibility prior to application. Spray solutions were applied to the plant material with an overhead Mandel track sprayer equipped with 8002E nozzles calibrated to deliver 187 L/ha over an application area of 0.503 square meters (m^2) at a spray height of 18 to 20 inches (46 to 50 cm) above average plant canopy height. Control plants were sprayed in the same manner with the solvent blank.
(§6) The treated plants and control plants were placed in a greenhouse as described above and watered by sub-irrigation to prevent wash-off of the test compounds. After approximately 3 weeks, the condition of the test plants as compared to that of the untreated plants was determined visually and scored on a scale of 0 to 100 percent where 0 corresponds to no injury or growth inhibition and 100 corresponds to complete kill.
(§7) Colby's equation was used to determine the herbicidal effects expected from the mixtures (Colby, S. R. Calculation of the synergistic and antagonistic response of herbicide combinations. Weeds 1967, 15, 20-22.).
(§8) The following equation was used to calculate the expected activity of mixtures containing two active ingredients, A and B: Expected=A+B−(A×B/100)

CYPIR = format: in vivo, Cyperus iria; details: 480 g ai/ha alone
Description: (§9) Seeds or nutlets of the desired test plant species were planted in a soil matrix prepared by mixing a loam or sandy loam soil (e.g., 28.6 percent silt, 18.8 percent clay, and 52.6 percent sand, with a pH of about 5.8 and an organic matter content of about 1.8 percent) and calcareous grit in an 80 to 20 ratio. The soil matrix was contained in plastic pots with a volume of 1 quart and a surface area of 83.6 square centimeters (cm^2). When required to ensure good germination and healthy plants, a fungicide treatment and/or other chemical or physical treatment was applied. The plants were grown for 8-22 days in a greenhouse with an approximate 14 hour (h) photoperiod which was maintained at about 29° C. during the day and 26° C. during the night. Nutrients (Peters Excel® 15-5-15 5-Ca 2-Mg and iron chelate) were applied in the irrigation solution as needed and water was added on a regular basis. Supplemental lighting was provided with overhead metal halide 1000-Watt lamps as necessary. The plants were employed for testing when they reached the first through fourth true leaf stage.
as §2
(§10) Treatment requirements were calculated based upon the rates being tested, the concentration of active ingredient or acid equivalent in the formulation, and a 12 milliliter (mL) application volume at a rate of 187 liters per hectare (L/ha).
as §3, §4, §5, §6, §7, §8

ECHCO = assay: Postemergence foliar-applied weed control, direct-seeded rice (greenhouse); format: in vivo, Echinochloa colonum
Procedure: as §1, §2, §3, §4, §5, §6, §7, §8

SCPJU = assay: as above; format: in vivo, Schoenoplectus juncoides; details: 480 g ai/ha alone
Description: as §9, with “Supplemental lighting was provided with overhead metal halide 1000-Watt lamps as necessary. The plants were employed for testing when they reached the first through fourth true leaf stage.” left out
as §10
For treatments comprised of formulated compounds, measured amounts of compounds were placed individually in 25 mL glass vials and diluted in a volume of 1.25% volume per volume (v/v) Agri-Dex® crop oil concentrate to obtain 12× stock solutions. […]

ECHCG [1] = assay: In-water applied weed control, transplanted paddy rice (greenhouse); format: in vivo, Echinochloa crus-galli
Procedure: Weed seeds or nutlets of the desired test plant species were planted in puddled soil (mud) prepared by mixing a shredded, non-sterilized mineral soil (50.5 percent silt, 25.5 percent clay, and 24 percent sand, with a pH of about 7.6 and an organic matter content of about 2.9 percent) and water at a 1:1 volumetric ratio. The prepared mud was dispensed in 365 mL aliquots into 16-ounce (oz.) non-perforated plastic pots with a surface area of 86.59 square centimeters (cm^2) leaving a headspace of 3 centimeters (cm) in each pot. Rice seeds were planted in Sun Gro MetroMix® 306 planting mixture, which typically has a pH of 6.0 to 6.8 and an organic matter content of about 30 percent, in plastic plug trays. Seedlings at the second or third leaf stage of growth were transplanted into 860 mL of mud contained in 32-oz. non-perforated plastic pots with a surface area of 86.59 cm^2 4 days prior to herbicide application. The paddy was created by filling the headspace of the pots with 2.5 to 3 cm of water. When required to ensure good germination and healthy plants, a fungicide treatment and/or other chemical or physical treatment was applied. The plants were grown for 4-22 days in a greenhouse with an approximate 14 h photoperiod which was maintained at about 29° C. during the day and about 26° C. during the night. Nutrients were added as Osmocote® (17:6:10, N:P:K+minor nutrients) at 2 grams (g) per 16-oz. pot and 4 g per 32-oz. pot. Water was added on a regular basis to maintain the paddy flood, and supplemental lighting was provided with overhead metal halide 1000-Watt lamps as necessary. The plants were employed for testing when they reached the first through fourth true leaf stage. […]
(§11) Treatment requirements for each compound or herbicidal component were calculated based upon the rates being tested, the concentration of active ingredient or acid equivalent in the formulation, an application volume of 2 mL per component per pot, and an application area of 86.59 cm^2 per pot.
For formulated compounds, a measured amount was placed in an individual 100 or 200 mL glass vial and was dissolved in a volume of 1.25% (v/v) AgriDex® crop oil concentrate to obtain application solutions. […]
The treated plants and control plants were placed in a greenhouse as described above and water was added as needed to maintain a paddy flood. After approximately 3 weeks the condition of the test plants as compared with that of the untreated plants was determined visually and scored on a scale of 0 to 100 percent where 0 corresponds to no injury or growth inhibition and 100 corresponds to complete kill. […]

ECHCG [2] = format: in vivo, Echinochloa crus-galli
Procedure: as §1, §2, §3, §4, §5, §6, §7, §8

IPOHE = format: in vivo, Ipomoea hederacea
Procedure: as §1, §2, §3, §4, §5, §6, §7, §8

CYPRO = assay: In-water applied weed control, transplanted paddy rice (greenhouse); format: in vivo, Cyperus rotundus; details: 21 DAA
Procedure: Weed seeds or nutlets of the desired test plant species were planted in puddled soil (mud) prepared by mixing a shredded, non-sterilized mineral soil (50.5 percent silt, 25.5 percent clay, and 24 percent sand, with a pH of about 7.6 and an organic matter content of about 2.9 percent) and water at a 1:1 volumetric ratio. The prepared mud was dispensed in 365 mL aliquots into 16-ounce (oz.) non-perforated plastic pots with a surface area of 86.59 square centimeters (cm^2) leaving a headspace of 3 centimeters (cm) in each pot. Rice seeds were planted in Sun Gro MetroMix® 306 planting mixture, which typically has a pH of 6.0 to 6.8 and an organic matter content of about 30 percent, in plastic plug trays. Seedlings at the second or third leaf stage of growth were transplanted into 860 mL of mud contained in 32-oz. non-perforated plastic pots with a surface area of 86.59 cm^2 4 days prior to herbicide application. The paddy was created by filling the headspace of the pots with 2.5 to 3 cm of water. When required to ensure good germination and healthy plants, a fungicide treatment and/or other chemical or physical treatment was applied. The plants were grown for 4-22 days in a greenhouse with an approximate 14 h photoperiod which was maintained at about 29° C. during the day and about 26° C. during the night. Nutrients were added as Osmocote® (17:6:10, N:P:K+minor nutrients) at 2 grams (g) per 16-oz. pot and 4 g per 32-oz. pot. Water was added on a regular basis to maintain the paddy flood, and supplemental lighting was provided with overhead metal halide 1000-Watt lamps as necessary. The plants were employed for testing when they reached the first through fourth true leaf stage.
Treatments consisted of the acid or esters of 4-amino-3-chloro-5-fluoro-6-(4-chloro-2-fluoro-3-methoxy-phenyl)pyridine-2-carboxylic acid (compound A) each formulated as an SC (suspension concentrate) and various herbicidal components alone and in combination. Forms of compound A were applied on an acid equivalent basis.
Other […] components were applied on an active ingredient basis and consisted of etofenprox (technical grade material) and sulfoxaflor formulated as Sulfoxaflor WG.
as §11
For formulated compounds, a measured amount was placed in an individual 100 or 200 mL glass vial and was dissolved in a volume of 1.25% (v/v) AgriDex® crop oil concentrate to obtain application solutions.
For technical grade compounds, a weighed amount was placed in an individual 100 to 200 mL glass vial and was dissolved in a volume of acetone to obtain concentrated stock solutions.
Applications were made by injecting with a pipetter appropriate amounts of the application solutions, individually and sequentially, into the aqueous layer of the paddy. Control plants were treated in the same manner with the solvent blank. Applications were made so that all treated plant material received the same concentrations of acetone and crop oil concentrate.
The treated plants and control plants were placed in a greenhouse as described above and water was added as needed to maintain a paddy flood. After approximately 3 weeks the condition of the test plants as compared with that of the untreated plants was determined visually and scored on a scale of 0 to 100 percent where 0 corresponds to no injury or growth inhibition and 100 corresponds to complete kill.
Colby's equation was used to determine the herbicidal effects expected from the mixtures (Colby, S. R. Calculation of the synergistic and antagonistic response of herbicide combinations. Weeds 1967, 15, 20-22.). […]

CYPES = format: in vivo, Cyperus esculentus
Procedure: as §1, §2, §3, §4, §5, §6, §7, §8

Row | SMILES | pest or weed control at 480 g/ha (LEFCH; Dinebra chinensis, post-emergence, 528 h, read-out: Visual Weed Control (%) - 22 DAA LEFCH Obs) [%] | Visual Weed Control (%) - 22 DAA CYPIR Obs (CYPIR) [%] | Visual Weed Control (%) - 22 DAA ECHCO Obs (ECHCO; 480 g ai/ha alone) [%] | Visual Weed Control (%) - 22 DAA SCPJU Obs (SCPJU) [%] | Visual Weed Control (%) - 19 DAA LEFCH Obs (LEFCH; 300 g ai/ha alone) [%] | pest or weed control at 150 g/ha (LEFCH; Dinebra chinensis, post-emergence, 528 h, 150 g ai/ha alone, read-out: Visual Weed Control (%) - 22 DAA LEFCH Obs) [%] | Visual Weed Control (%) - 21 DAA ECHCG Obs (ECHCG [1]; 75 g ai/ha alone) [%] | Visual Weed Control (%) - 21 DAA ECHCG Obs (ECHCG [1]; 150 g ai/ha alone) [%] | Visual Weed Control (%) - 21 DAA ECHCG Obs (ECHCG [1]; 300 g ai/ha alone) [%] | Visual Weed Control (%) - 19 DAA ECHCO Obs (ECHCO; 300 g ai/ha alone) [%] | Visual Weed Control (%) - 22 DAA ECHCG Obs (ECHCG [2]; 75 g ai/ha alone) [%] | Visual Weed Control (%) - 22 DAA ECHCG Obs (ECHCG [2]; 150 g ai/ha alone) [%] | Visual Weed Control (%) - 19 DAA ECHCG Obs (ECHCG [2]; 300 g ai/ha alone) [%] | Visual Weed Control (%) - 22 DAA IPOHE Obs (IPOHE; 75 g ai/ha alone) [%] | Visual Weed Control (%) - 22 DAA IPOHE Obs (IPOHE; 150 g ai/ha alone) [%] | Visual Weed Control (%) - 21 DAA CYPRO Obs (CYPRO; 75 g ai/ha alone) [%] | Visual Weed Control (%) - 21 DAA CYPRO Obs (CYPRO; 150 g ai/ha alone) [%] | Visual Weed Control (%) - 21 DAA CYPRO Obs (CYPRO; 300 g ai/ha alone) [%] | Visual Weed Control (%) - 22 DAA CYPES Obs (CYPES; 75 g ai/ha alone) [%] | Visual Weed Control (%) - 22 DAA CYPES Obs (CYPES; 150 g ai/ha alone) [%]
1 | CNC(=O)CSP(=S)(OC)OC [Dimethoate, O,O-dimethyl S-methylcarbamoylmethyl phosphorodithioate] | 0 | 0 | 10 | 0 | – | – | – | – | – | – | – | – | – | – | – | – | – | – | – | –
2 | CCOc1ccc(C(C)(C)COCc2cccc(Oc3ccccc3)c2)cc1 [Etofenprox, 2-(4-ethoxyphenyl)-2-methylpropyl 3-phenoxybenzyl ether] | – | – | – | – | 0 | 0 | 0 | 0 | 0 | 0 | 0 | 0 | 0 | 0 | 0 | 0 | 0 | 0 | 0 | 0
